Experimental data taken from PubChem BioAssay (NCI).
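Each compound was tested at five concentrations against cells in 96-well plates for 48 hours. TGI marks complete inhibition of growth.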

Key:
Assay in all cases: inhibition of tumour cell growth, NCI panel, 48 h
A498 renal = system: A498 renal
CAKI-1 renal = system: CAKI-1 renal
HOP-92 NSCLC = system: HOP-92 NSCLC
HS 578T breast = system: HS 578T breast
K-562 leukemia = system: K-562 leukemia
M14 melanoma = system: M14 melanoma
MDA-MB-435 = system: MDA-MB-435
OVCAR-3 ovarian = system: OVCAR-3 ovarian
SF-268 CNS = system: SF-268 CNS
SF-295 CNS = system: SF-295 CNS
SK-MEL-28 melanoma = system: SK-MEL-28 melanoma
SN12C renal = system: SN12C renal
TK-10 renal = system: TK-10 renal

Row | SMILES | TGI (A498 renal) [µM] | TGI (CAKI-1 renal) [µM] | TGI (HOP-92 NSCLC) [µM] | TGI (HS 578T breast) [µM] | TGI (K-562 leukemia) [µM] | TGI (M14 melanoma) [µM] | TGI (MDA-MB-435) [µM] | TGI (OVCAR-3 ovarian) [µM] | TGI (SF-268 CNS) [µM] | TGI (SF-295 CNS) [µM] | TGI (SK-MEL-28 melanoma) [µM] | TGI (SN12C renal) [µM] | TGI (TK-10 renal) [µM]
1 | CC1(C)OC1CC/C(=C/CBr)CBr (stereo not drawn) | 47.9 | 32.3 | 29.4 | 47.7 | 49 | 36.5 | 31.9 | 33.7 | 29 | 27.6 | 31.5 | 29.1 | 32.5
2 | CCCCc1cc2c(cc1O)CCC1C2CC[C@@]2(C)C1CC[C@@H]2O (stereo partly drawn) | 57.2 | 52.6 | 39.3 | 43.8 | 43.6 | 41.7 | 36.5 | 29.7 | 89 | 35.8 | 45.1 | 39.3 | 33.7
3 | S=C1c2cc(Cl)ccc2NC(=NC2CCCC2)C2CSCN12 (stereo not drawn) | > 100 | > 100 | > 100 | > 100 | > 100 | > 100 | > 100 | > 100 | > 100 | > 100 | > 100 | > 100 | > 100
4 | CC(=O)c1ccc2c(c1)CC1(C2)Cc2cc3c(cc2C1)C(=O)CC3 (stereo not drawn) | 4.22 | 33.5 | 32.8 | > 69.2 | 2.32 | 17.6 | 0.636 | 5.96 | > 100 | 13 | 30.4 | > 100 | > 83
5 | COc1cc(O)c(C(=O)/C=C/c2ccc(O)cc2)cc1Oc1ccc(C(=O)/C=C/c2ccc(O)cc2)c(O)c1 | 5.68 | 9.69 | 24.9 | 82.8 | 10.7 | 12.7 | 11.8 | 8.14 | 14.2 | 10.4 | 4.11 | 5.99 | 11.3
6 | COc1ccc(N=NN2CCCC2)cc1 | > 100 | 35.1 | 42.4 | > 100 | > 100 | > 100 | > 100 | 43.8 | > 100 | > 100 | > 100 | 55 | > 100
7 | COc1ccc(N(C(=O)OC(C)(C)C)[C@@H]2C(C)=C[C@H]([S@@](=O)c3ccc(C)cc3)[C@@H]3C(=O)N(C)C(=O)[C@@H]32)cc1 | 29.3 | 52.6 | 61.5 | 42.9 | > 100 | > 100 | 37.9 | 80.8 | 33.9 | 35.9 | 41.3 | 32.2 | 43.4
8 | CC1(c2cccc(C3CCC4(C=CC3=O)OCCO4)c2)OCCO1 (stereo not drawn) | 33.5 | 21.1 | 17.8 | 41.8 | 25.1 | 20.1 | 26.1 | 13 | 36 | > 56.7 | 29.6 | 27.7 | 20.3
9 | Cc1ccc(Nc2ncnc3sc(SCc4ccccc4)nc23)cc1 | > 100 | > 100 | > 100 | > 100 | > 100 | > 100 | > 100 | > 100 | > 100 | > 100 | > 100 | > 100 | > 100
10 | Cc1cc(SCC(=O)c2ccc(Br)cc2)cc(C)[o+]1 | 81.6 | > 100 | 74.8 | > 100 | 74.9 | 79.1 | 51.3 | 49.8 | > 100 | 65.6 | 42.9 | > 100 | 87.9
11 | Cc1[nH]n(C(=O)c2ccccc2O)c(=O)c1/C=C1\C(=O)C=Cc2ccccc21 | 11.2 | 6.64 | 28.7 | > 100 | > 44 | 4.63 | 79.7 | 1.2 | 31 | 26.4 | 71.6 | 13.6 | > 100
